# Data: US5122368A, “Anthracycline conjugates having a novel linker and methods for their production” (Bristol-Myers Squibb Company, priority 1989, dated 1992)
# Several values for one entry are separate records, joined by “and”; a condition that tells them apart may be missing. Equal values may be shown once. Where a name gives a salt, the structure may show the parent alone. Read-outs that look alike come from different tables or passages of the source.
# Experiments:
# [1] = system: Ramos tumor xenografts; assay: In vivo anti-tumor activity on Ramos tumor xenografts; set-up: species or system BALB/c nude mice; conditions: Q7D×3, i.v. (title: Q1D×1; i.v.)
# [2] = for % Deaths / D/T, # Deaths/Total Treated: Daudi or Ramos bearing mice
# [3] = system: Daudi tumor xenografts; assay: In vivo anti-tumor activity on Daudi tumor xenografts; conditions: for anti-tumor activity: Q5D×2 (days 20 and 25), 4.1 mg/kg/inj ADM and/or 630 mg/kg/inj 5E9
# [4] = N=1, Q1D×1, i.v., ADM 14 mg/kg/inj, cumulative 14
# [5] = N=1, Q2D×2, i.v., ADM 8 mg/kg/inj, cumulative 16
# [6] = N=1, Q2D×2, i.v., ADM 10 mg/kg/inj, cumulative 20
# [7] = N=1, Q2D×2, i.v., ADM 15 mg/kg/inj, cumulative 30
# [8] = N=1, Q3D×2, i.v., ADM 12 mg/kg/inj, cumulative 24
# [9] = N=1, Q3D×2, i.v., ADM 14 mg/kg/inj, cumulative 28
# [10] = N=1, Q3D×2, i.v., ADM 16 mg/kg/inj, cumulative 32
# [11] = N=1, Q4D×2, i.v., ADM 10 mg/kg/inj, cumulative 20
# [12] = N=1, Q4D×2, i.v., ADM 14 mg/kg/inj, cumulative 28
# [13] = N=1, Q4D×3, i.p., ADM 5 mg/kg/inj, cumulative 15
# [14] = N=1, Q5D×2, i.p., ADM 4.1 mg/kg/inj, cumulative 8.2
# [15] = N=1, Q5D×2, i.p., ADM 5.5 mg/kg/inj, cumulative 11
# [16] = N=1, Q7D×3, i.v., ADM 12 mg/kg/inj, cumulative 36
# [17] = N=1, Q8D×2, i.p., ADM 5 mg/kg/inj, cumulative 10
# [18] = N=1, Q8D×2, i.p., ADM 10 mg/kg/inj, cumulative 20
# [19] = N=1, Q8D×2, i.p., ADM 13 mg/kg/inj, cumulative 26
# [20] = N=2, Q2D×2, i.v., ADM 12 mg/kg/inj, cumulative 24
# [21] = N=2, Q4D×2, i.v., ADM 12 mg/kg/inj, cumulative 24
# [22] = N=3, Q1D×1, i.v., ADM 16 mg/kg/inj, cumulative 16
# [23] = N=3, Q7D×3, i.v., ADM 10 mg/kg/inj, cumulative 30
# [24] = N=3, Q7D×3, i.v., ADM 11 mg/kg/inj, cumulative 33
# [25] = N=4 experiments, Q1D×1, i.v., ADM 18 mg/kg/inj, cumulative 18
# [26] = Daudi-bearing mice, 5 mg/kg/inj, cum 10, Q8D×2, i.p.
# [27] = Daudi-bearing mice, 5 mg/kg/inj, cum 15, Q4D×3, i.p.
# [28] = Daudi-bearing mice, 5 mg/kg/inj, cum 15, Q7D×3, i.p.
# [29] = Daudi-bearing mice, 5 mg/kg/inj, cum 15, Q7D×3, i.v.
# [30] = Daudi-bearing mice, 10 mg/kg/inj, cum 30, Q7D×3, i.p.
# [31] = Daudi-bearing mice, 11 mg/kg/inj, cum 33, Q7D×3, i.v., hydrochloride, 11 mg/kg
# [32] = Daudi-bearing mice, 12 mg/kg/inj, cum 12, Q1D×1, i.v.
# [33] = Daudi-bearing mice, 13 mg/kg/inj, cum 26, Q8D×2, i.p.
# [34] = Daudi-bearing mice, 15 mg/kg/inj, cum 15, Q1D×1, i.v.
# [35] = Daudi-bearing mice, 18 mg/kg/inj, cum 18, Q1D×1, i.v.
# [36] = Daudi-bearing mice, 20 mg/kg/inj, cum 20, Q1D×1, i.v.
# [37] = Ramos-bearing mice, 16 mg/kg/inj, Q7D×3, i.v. (title: Q1D×1; i.v.)
# [38] = Ramos-bearing mice, 18 mg/kg/inj, Q7D×3, i.v. (title: Q1D×1; i.v.)
# [39] = 4.1 mg/kg/inj, cum 8.2, Q5D×2, i.p.
# [40] = 4.5 mg/kg/inj, cum 9, Q5D×2, i.p.
# [41] = 5 mg/kg/inj, cum 15, Q7D×3, i.v.
# [42] = 5.5 mg/kg/inj, cum 11, Q5D×2, i.p.
# [43] = 9 mg/kg/inj, cum 27, Q7D×3, i.v.
# [44] = 11 mg/kg/inj, cum 33, Q7D×3, i.v., hydrochloride
# [45] = 12 mg/kg/inj, cum 36, Q7D×3, i.v., hydrochloride
smiles,measurement,setting,value
"COc1cccc2c1C(=O)c1c(O)c3c(c(O)c1C2=O)C[C@@](O)(C(=O)CO)C[C@@H]3O[C@H]1C[C@H](N)[C@H](O)[C@H](C)O1 [ADM-HCl, adriamycin hydrochloride]","CR, complete regressions",[1]; 16 mg/kg/inj,0
same,Cures,[1]; 16 mg/kg/inj,0
same,"T-C, delay to reach 3000 mm^3 vs untreated controls",[1]; 16 mg/kg/inj,5 days
same,"TDD, tumor doubling delay",[1]; 16 mg/kg/inj,0.3
same,"CR, complete regressions",[1]; 18 mg/kg/inj,0
same,Cures,[1]; 18 mg/kg/inj,0
same,"T-C, delay to reach 3000 mm^3 vs untreated controls",[1]; 18 mg/kg/inj,8 days
same,"TDD, tumor doubling delay",[1]; 18 mg/kg/inj,0.5
same,% Deaths,[2]; [4],0%
same,"D/T, # Deaths/Total Treated",[2]; [4],0/8
same,% Deaths,[2]; [5],20%
same,"D/T, # Deaths/Total Treated",[2]; [5],1/5
same,% Deaths,[2]; [6],60%
same,"D/T, # Deaths/Total Treated",[2]; [6],3/5
same,% Deaths,[2]; [7],100%
same,"D/T, # Deaths/Total Treated",[2]; [7],7/7
same,% Deaths,[2]; [8],75%
same,"D/T, # Deaths/Total Treated",[2]; [8],6/8
same,% Deaths,[2]; [9],88%
same,"D/T, # Deaths/Total Treated",[2]; [9],7/8
same,% Deaths,[2]; [10],100%
same,"D/T, # Deaths/Total Treated",[2]; [10],8/8
same,% Deaths,[2]; [11],25%
same,"D/T, # Deaths/Total Treated",[2]; [11],2/8
same,% Deaths,[2]; [12],86%
same,"D/T, # Deaths/Total Treated",[2]; [12],6/7
same,% Deaths,[2]; [13],67%
same,"D/T, # Deaths/Total Treated",[2]; [13],6/9
same,% Deaths,[2]; [14],20%
same,"D/T, # Deaths/Total Treated",[2]; [14],1/5
same,% Deaths,[2]; [15],0%
same,"D/T, # Deaths/Total Treated",[2]; [15],0/8
same,% Deaths,[2]; [16],50%
same,"D/T, # Deaths/Total Treated",[2]; [16],4/8
same,% Deaths,[2]; [17],38%
same,"D/T, # Deaths/Total Treated",[2]; [17],3/8
same,% Deaths,[2]; [18],100%
same,"D/T, # Deaths/Total Treated",[2]; [18],8/8
same,% Deaths,[2]; [19],100%
same,"D/T, # Deaths/Total Treated",[2]; [19],7/7
same,% Deaths,[2]; [20],83%
same,"D/T, # Deaths/Total Treated",[2]; [20],10/12
same,% Deaths,[2]; [21],47%
same,"D/T, # Deaths/Total Treated",[2]; [21],7/15
same,% Deaths,[2]; [22],10%
same,"D/T, # Deaths/Total Treated",[2]; [22],3/31
same,% Deaths,[2]; [23],0%
same,"D/T, # Deaths/Total Treated",[2]; [23],0/24
same,% Deaths,[2]; [24],15%
same,"D/T, # Deaths/Total Treated",[2]; [24],4/26
same,% Deaths,[2]; [25],44%
same,"D/T, # Deaths/Total Treated",[2]; [25],14/32
same,"D/T, deaths/total animals","[2]; Daudi-bearing mice, 4.1 mg/kg/inj, cum 8.2, Q5D×2, i.p.",1/5
same,"D/T, deaths/total animals","[2]; Daudi-bearing mice, 4.5 mg/kg/inj, cum 9, Q5D×2, i.p., hydrochloride, 4.5 mg/kg",0/5 and 0/8
same,"D/T, deaths/total animals",[2]; [26],3/8
same,"Toxicity (%), deaths",[2]; [26],37%
same,"D/T, deaths/total animals",[2]; [27],6/9
same,"Toxicity (%), deaths",[2]; [27],67%
same,"D/T, deaths/total animals",[2]; [28],6/9
same,"Toxicity (%), deaths",[2]; [28],67%
same,"D/T, deaths/total animals",[2]; [29],1/9
same,"Toxicity (%), deaths",[2]; [29],11%
same,"D/T, deaths/total animals","[2]; Daudi-bearing mice, 5.5 mg/kg/inj, cum 11, Q5D×2, i.p.",0/8
same,"D/T, deaths/total animals","[2]; Daudi-bearing mice, 9 mg/kg/inj, cum 27, Q7D×3, i.v.",0/10
same,"D/T, deaths/total animals","[2]; Daudi-bearing mice, 10 mg/kg/inj, cum 20, Q8D×2, i.p.",8/8
same,"D/T, deaths/total animals",[2]; [30],8/8
same,"Toxicity (%), deaths",[2]; [30],100%
same,"D/T, deaths/total animals","[2]; Daudi-bearing mice, 10 mg/kg/inj, cum 30, Q7D×3, i.v., hydrochloride, 10 mg/kg",0/8 and 0/7
same,"D/T, deaths/total animals",[2]; [31],2/8 and 2/10 and 0/8
same,"Toxicity (%), deaths",[2]; [31],25% and 20%
same,"D/T, deaths/total animals",[2]; [32],7/7
same,"Toxicity (%), deaths",[2]; [32],100%
same,"Toxicity (%), deaths","[2]; Daudi-bearing mice, 12 mg/kg/inj, cum 36, Q7D×3, i.v.",50%
same,"D/T, deaths/total animals","[2]; Daudi-bearing mice, 12 mg/kg/inj, cum 36, Q7D×3, i.v., hydrochloride, 12 mg/kg",4/8 and 2/8
same,"D/T, deaths/total animals",[2]; [33],7/7
same,"Toxicity (%), deaths",[2]; [33],100%
same,"D/T, deaths/total animals",[2]; [34],7/7
same,"Toxicity (%), deaths",[2]; [34],100%
same,"D/T, deaths/total animals",[2]; [35],6/8
same,"Toxicity (%), deaths",[2]; [35],75%
same,"D/T, deaths/total animals",[2]; [36],7/7
same,"Toxicity (%), deaths",[2]; [36],100%
same,MTD (maximum tolerated dose),"[2]; Q7D×3, i.v.",11 mg/kg/inj
same,"D/T, deaths/total animals",[2]; [37],1/8
same,"Toxicity (%), deaths (lethality)",[2]; [37],12%
same,"D/T, deaths/total animals",[2]; [38],2/8
same,"Toxicity (%), deaths (lethality)",[2]; [38],25%
same,MTD (maximum tolerated dose),[2]; i.p.,4-5 mg/kg/inj
same,"CR, complete regressions",[3]; [39],0
same,Cures,[3]; [39],0
same,"T-C, delay to reach 3000 mm^3 vs untreated controls",[3]; [39],0 days
same,"TDD, tumor doubling delay",[3]; [39],0
same,"CR, complete regressions",[3]; [40],0
same,Cures,[3]; [40],0
same,"T-C, delay to reach 3000 mm^3 vs untreated controls",[3]; [40],2.2 days
same,"CR, complete regressions",[3]; [41],2
same,Cures,[3]; [41],0
same,"T-C, delay to reach 3000 mm^3 vs untreated controls",[3]; [41],6.2 days
same,"TDD, tumor doubling delay",[3]; [41],0.18
same,"CR, complete regressions",[3]; [42],0
same,Cures,[3]; [42],0
same,"T-C, delay to reach 3000 mm^3 vs untreated controls",[3]; [42],2.2 days
same,"TDD, tumor doubling delay",[3]; [42],.1
same,"CR, complete regressions",[3]; [43],0
same,Cures,[3]; [43],1
same,"T-C, delay to reach 3000 mm^3 vs untreated controls",[3]; [43],23 days
same,"TDD, tumor doubling delay",[3]; [43],0.9
same,"CR, complete regressions","[3]; 10 mg/kg/inj, cum 30, Q7D×3, i.v.",0
same,"TDD, tumor doubling delay","[3]; 10 mg/kg/inj, cum 30, Q7D×3, i.v., hydrochloride",0.7 and 0.8
same,"T-C, delay to reach 3000 mm^3 vs untreated controls",[3]; [44],28 days and > 42 days and 21 days
same,"TDD, tumor doubling delay",[3]; [44],1.1 and > 1.3 and 0.7 and > 1.1
same,Cures,"[3]; 12 mg/kg/inj, cum 36, Q7D×3, i.v.",3
same,"T-C, delay to reach 3000 mm^3 vs untreated controls",[3]; [45],> 62 days and > 33 days
same,"TDD, tumor doubling delay",[3]; [45],> 2.0 and > 1.5
same,anti-tumor activity,"[3]; i.p., hydrochloride",no anti-tumor activity
same,anti-tumor activity,"[3]; i.p., listed as ADM, hydrochloride",inactive
same,growth inhibition of Daudi tumor xenografts,"[3]; Q7D×3, i.v., 9, 10 or 11 mg/kg/injection",significantly inhibited in a dose dependent fashion
same,anti-tumor activity at MTD,"[3]; i.p. route, MTD",inactive
